Measurements reported in the supplement of paper PMC4858399.
Counter-ions that a name gives are not always drawn.

Experiments:
[1] = tested on: Caenorhabditis elegans N2; experiment: lowest effective concentration for larval growth inhibition (size below effect threshold); higher = less potent; conditions: exposure time 48 h
Procedure, shortened: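 C. elegans N2 L1 larvae (50 per 96-well) were grown 48 h at 20°C in K-medium with killed bacteria, 1% DMSO and 0.5, 1, 5, 10, 50, 100 or 200 µM chemical. The Biosort measured per-worm extinction as size, and these were log-transformed into well means. The lowest effective concentration is the first dose where the plate-adjusted mean size drops under the 5.665 threshold and stays under it at higher doses.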

[2] = tested on: Caenorhabditis elegans N2; experiment: mean nematode size ln(EXT) after 48 h, plate-adjusted (DMSO control set to 6) (ln(EXT), control-adjusted); higher = larger nematodes / less growth inhibition; conditions: exposure time 48 h
Procedure, shortened: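 C. elegans N2 larvae, synchronised at L1, grew for 48 h at 20°C in K-medium with killed OP50, 1% DMSO and 0.5–200 µM chemical. Mean size per well was derived from natural-logged Biosort extinction after a growth model removed debris. Adjustment across plates involved subtracting the vehicle control mean and adding 6.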

Compound | lowest effective concentration [1] [µM] | mean nematode size ln(EXT) (ln) ([2]; 0.5 µM) | mean nematode size ln(EXT) (ln) ([2]; 1 µM) | mean nematode size ln(EXT) (ln) ([2]; 5 µM) | mean nematode size ln(EXT) (ln) ([2]; 10 µM) | mean nematode size ln(EXT) (ln) ([2]; 50 µM) | mean nematode size ln(EXT) (ln) ([2]; 100 µM) | mean nematode size ln(EXT) (ln) ([2]; 200 µM)
Cn1c(-c2ccccc2)cc(-c2ccccc2)[n+]1C [Difenzoquat metilsulfate] | > 200 | 6.06 | 6.04 | 6.06 | 6.07 | 5.99 | 6.1 | 5.9
Cc1cccc([N+](=O)[O-])c1C [1,2-Dimethyl-3-nitrobenzene] | > 200 | 5.81 | 5.89 | 5.83 | 5.77 | 5.86 | 5.83 | 5.79
C#CCN1C(=O)COc2cc(F)c(N3C(=O)C4=C(CCCC4)C3=O)cc21 [Flumioxazin] | > 200 | 5.98 | 5.91 | 5.92 | 5.99 | 5.98 | 5.87 | 6
Clc1ccccc1Cl [1,2-Dichlorobenzene] | > 200 | 5.95 | 5.9 | 5.9 | 6 | 6.02 | 6.04 | 5.68
CCCCC(CC)COC(=O)CCCCC(=O)OCc1ccccc1 (configuration not stated) [Benzyloctyl adipate (BOA)] | > 200 | 5.99 | 5.97 | 6.03 | 6.02 | 5.92 | 5.77 | 5.89
CCCCC(CC)COP(=O)(OCC(CC)CCCC)OCC(CC)CCCC (configuration not stated) [Tris(2-ethylhexyl) phosphate] | > 200 | 5.94 | 5.99 | 5.94 | 5.96 | 5.92 | 5.34 | 5.78
CCNc1nc(N)nc(Cl)n1 [6-Deisopropylatrazine] | > 200 | 6.12 | 6.17 | 6.08 | 6.05 | 5.95 | 6 | 5.94
Cc1cc(C)cc(C)c1 [1,3,5-Trimethylbenzene] | > 200 | 5.85 | 5.84 | 5.83 | 5.9 | 5.89 | 5.99 | 5.72
CC1=C(C)S(=O)(=O)CCS1(=O)=O [Dimethipin] | > 200 | 5.96 | 5.96 | 5.91 | 5.93 | 5.98 | 6 | 5.93
Nc1ccc(-c2ccc(N)cc2)cc1 [Benzidine] | > 200 | 6.06 | 6.02 | 5.91 | 5.98 | 5.81 | 5.75 | 5.97
OCC(CO)n1cnc(-c2ccc(F)cc2)c1-c1ccnc(Oc2ccccc2)n1 | > 200 | 6.02 | 5.98 | 5.97 | 6.03 | 6.04 | 5.98 | 5.82
CC1=CC(=O)CC(C)(C)C1 [Isophorone] | > 200 | 5.84 | 5.72 | 5.76 | 5.71 | 5.75 | 5.94 | 5.79
C/C(=N\C#N)N(C)Cc1ccc(Cl)nc1 [Acetamiprid] | > 200 | 5.78 | 5.98 | 6.03 | 6.03 | 6.16 | 6.02 | 5.96
Cc1cc(Cc2ccc(N)c(C)c2)ccc1N [4,4'-Methylene bis(2-methylaniline)] | > 200 | 5.83 | 5.82 | 5.8 | 5.78 | 5.79 | 5.83 | 5.71
Cc1ncc([C@@H](CCCCCCc2ccc3c(n2)NCCC3)CC(=O)O)cn1 | > 200 | 5.81 | 5.79 | 5.84 | 5.84 | 5.8 | 5.87 | 5.86
OB(O)O [Boric acid] | > 200 | 6.06 | 6.07 | 6.08 | 6.13 | 6.14 | 6.18 | 5.95
COc1cc(-c2ccc(N)c(OC)c2)ccc1N [3,3'-Dimethoxybenzidine)] | > 200 | 6 | 6.08 | 6.05 | 6.07 | 6.06 | 6.03 | 5.74
C1N2CN3CN1CN(C2)C3 [Hexamethylenetetramine] | 5 | 5.69 | 5.77 | 5.6 | 5.54 | 5.51 | 5.41 | 5.6
O=C([O-])c1ccccc1.[Na+] [Sodium benzoate] | > 200 | 5.83 | 5.83 | 5.95 | 5.83 | 5.86 | 5.76 | 5.68
Cc1ccc(C)c(O)c1 [2,5-Dimethylphenol] | > 200 | 5.86 | 5.95 | 5.74 | 5.83 | 5.95 | 5.83 | 5.72
Cc1ccc(C)c(C)c1 [1,2,4-Trimethylbenzene] | > 200 | 5.8 | 5.84 | 5.88 | 5.84 | 5.91 | 5.89 | 5.71
CC(=O)OC[C@H]1O[C@@](COC(C)=O)(O[C@H]2O[C@H](COC(C)=O)[C@@H](OC(C)=O)[C@H](OC(C)=O)[C@H]2OC(C)=O)[C@@H](OC(C)=O)[C@@H]1OC(C)=O [Sucrose octaacetate] | > 200 | 5.78 | 5.75 | 5.76 | 5.75 | 5.72 | 5.75 | 5.73
CN(C)c1ccccc1 [N,N-Dimethylaniline] | > 200 | 5.97 | 6.02 | 6.03 | 6.01 | 6.08 | 6.02 | 5.73
O=C(O)Cc1ccccc1Nc1c(Cl)cccc1Cl [Diclofenac sodium salt] | > 200 | 5.93 | 5.95 | 5.92 | 5.99 | 5.92 | 5.9 | 5.83
C[C@H](O)CCO [1,3-Butanediol] | > 200 | 5.92 | 5.9 | 5.88 | 6.01 | 6 | 6.02 | 5.74
OCCN(CCO)CCO [Triethanolamine] | > 200 | 5.65 | 5.64 | 5.71 | 5.66 | 5.09 | 5.38 | 5.69
c1ccc(C2CO2)cc1 (configuration not stated) [Styrene oxide] | > 200 | 6.05 | 6.04 | 6.03 | 6.01 | 6.03 | 6.03 | 5.89

Compound | lowest effective concentration [1] [µM] | mean nematode size ln(EXT) (ln) ([2]; 0.5 µM) | mean nematode size ln(EXT) (ln) ([2]; 1 µM) | mean nematode size ln(EXT) (ln) ([2]; 5 µM) | mean nematode size ln(EXT) (ln) ([2]; 10 µM) | mean nematode size ln(EXT) (ln) ([2]; 50 µM) | mean nematode size ln(EXT) (ln) ([2]; 100 µM) | mean nematode size ln(EXT) (ln) ([2]; 200 µM)
CCc1cc(C2=C(C(=O)O)N(c3ccccc3C(F)(F)F)S(=O)(=O)c3ccccc32)cc2c1OCO2 [Fandosentan potassium salt] | > 200 | 5.81 | 5.82 | 5.89 | 5.85 | 5.75 | 5.75 | 5.69
C/C=C/C=C/C(=O)O [Sorbic acid] | > 200 | 5.84 | 5.83 | 5.82 | 5.95 | 5.89 | 5.86 | 5.7
C=CC(=C)CCC=C(C)C [Myrcene] | > 200 | 5.79 | 5.75 | 5.76 | 5.75 | 5.73 | 5.71 | 5.71
CNC(=O)O/N=C(\SC)C(=O)N(C)C [Oxamyl] | > 200 | 6.13 | 6.48 | 6.09 | 6.33 | 6.42 | 6.43 | 5.75
CCOCCO [2-Ethoxyethanol] | > 200 | 5.85 | 5.79 | 5.75 | 5.64 | 5.72 | 5.89 | 5.79
CC(C)(C)c1ccccc1 [tert-Butylbenzene] | > 200 | 5.94 | 6.02 | 6.07 | 6.05 | 6.22 | 6.12 | 5.79
CCCC(=O)OCCC(C)C [Isoamyl butyrate] | > 200 | 5.92 | 5.91 | 5.91 | 6.05 | 5.81 | 5.9 | 6.13
ClCCOCCCl [Bis(2-chloroethyl)ether] | > 200 | 5.78 | 6.14 | 5.94 | 5.96 | 5.8 | 5.86 | 5.72
NC(N)=O [Urea] | > 200 | 5.83 | 5.73 | 5.79 | 5.7 | 5.77 | 5.86 | 5.74
Cc1ccccc1[N+](=O)[O-] [2-Nitrotoluene] | > 200 | 5.85 | 5.89 | 6.04 | 5.77 | 5.91 | 5.76 | 5.7
CCCCCC(=O)O [Hexanoic acid] | > 200 | 5.99 | 5.88 | 5.83 | 5.84 | 5.83 | 5.87 | 5.79
Cc1cc(-c2ccc(N)c(C)c2)ccc1N [o-Tolidine] | > 200 | 5.82 | 5.91 | 5.9 | 5.97 | 5.85 | 5.84 | 5.86
CC(C)(C)OOC(=O)c1ccccc1 [tert-Butyl perbenzoate] | > 200 | 6.05 | 6.11 | 6.1 | 6.03 | 6 | 6.09 | 5.87
Nc1ccc(C(=O)O)cc1 [4-Aminobenzoic acid] | > 200 | 5.84 | 5.87 | 5.81 | 5.49 | 5.83 | 5.85 | 5.72
CCCOC(=O)c1ccc(O)cc1 [Propylparaben] | > 200 | 5.95 | 5.95 | 5.9 | 5.92 | 5.84 | 5.87 | 5.79
O=C(O)CC(O)(CC(=O)O)C(=O)O [Citric acid] | > 200 | 5.85 | 6.03 | 6.03 | 5.9 | 5.99 | 5.63 | 5.73
COC(=O)c1ccccc1C(=O)O [Methyl hydrogen phthalate] | > 200 | 6.07 | 6.01 | 6.1 | 6.07 | 6.14 | 6.14 | 5.95
CCOC(=O)c1ccccc1C(=O)OCC [Diethyl phthalate] | > 200 | 5.92 | 5.85 | 5.82 | 5.76 | 5.94 | 5.81 | 5.79
CCC(C)(CC)c1cc(NC(=O)c2c(OC)cccc2OC)on1 [Isoxaben] | > 200 | 5.88 | 5.93 | 6.01 | 6.02 | 5.92 | 6.03 | 5.93
CCCCC(CC)C(=O)OCCOCCOCCOC(=O)C(CC)CCCC (configuration not stated) [Tri(ethylene glycol) bis(2-ethylhexanoate)] | > 200 | 5.84 | 5.86 | 6 | 5.97 | 5.86 | 5.84 | 5.79
O=C(O)C(Cl)Cl [Dichloroacetic acid] | > 200 | 5.56 | 5.97 | 6.02 | 5.89 | 5.98 | 5.92 | 5.7
CC(C)c1ccc(C(=O)N=C(N)N)cc1S(C)(=O)=O [Cariporide mesylate (HOE642)] | > 200 | 5.88 | 5.82 | 5.8 | 5.77 | 5.7 | 5.62 | 5.71
c1ccc(OP(Oc2ccccc2)Oc2ccccc2)cc1 [Triphenyl phosphite] | > 200 | 5.86 | 5.75 | 5.77 | 5.81 | 5.75 | 5.95 | 5.72
COCc1cnc(C2=NC(C)(C(C)C)C(=O)N2)c(C(=O)O)c1 (configuration not stated) [Imazamox] | > 200 | 5.93 | 5.93 | 5.91 | 5.96 | 6 | 6.01 | 5.83
CCCOc1ccc(S(=O)(=O)N2CCN(CC)CC2)cc1-c1nc2c(CC)n(Cc3ccccn3)nc2c(=O)[nH]1 | > 200 | 5.7 | 6.03 | 5.83 | 5.88 | 5.91 | 5.88 | 5.69
COC(=O)CCCC(=O)OC [Dimethyl glutarate] | > 200 | 5.91 | 5.94 | 5.9 | 6.02 | 6.01 | 6.04 | 5.78
CS(=O)(=O)OCCCCOS(C)(=O)=O [Busulfan] | > 200 | 5.98 | 5.93 | 5.94 | 5.95 | 5.98 | 5.94 | 5.8
